Test results taken from patent US6025378A, “Bicyclic heterocyclic compounds” (Bayer Aktiengesellschaft, priority 1995, dated 2000).
pIC50: −log10 of the molar value.

System: ApoB-100-associated lipoproteins released from HepG2 cells
Test: Inhibition of the release of ApoB-100-associated lipoproteins from cultured hepatic HepG2 cells (immunoassay for human LDL)
Format: cell-based
Settings: HepG2 cells; culture supernatant; absorption at 450 nm inhibited by 50% vs solvent control; read-out: Apo B IC50
Method: 1. Inhibition of the Release of ApoB-100-associated Lipoproteins
The test for detection of the inhibition of the release of ApoB-100-associated lipoproteins from hepatic cells was carried out in vitro with cultured hepatic cells, preferably with cells of the human line HepG2. These cells are cultured under standard conditions in medium for culture of eukaryotic cells, preferably in RPMI 1640 with 10% foetal calf serum. HepG2 cells synthesize and secrete into the culture supernatant ApoB-100-associated lipoprotein particles, which are in principle built up similarly to the VLDL and LDL particles which are to be found in plasma.
These particles can be detected with an immunoassay for human LDL. This immunoassay is carried out with antibodies which have been induced against human LDL in rabbits under standard conditions. The anti-LDL antibodies (rab-anti-LDL-Ab) were purified by affinity chromatography on an immunosorbent with human LDL. These purified rab-anti-LDL-Ab are adsorbed onto the surface of plastic. This adsorption is expediently carried out on the plastic surface of microtiter plates with 96 wells, preferably on MaxiSorp plates. If ApoB-100-associated particles are present in the supernatant of Hep-G2 cells, these can bond to the insolubilized rab-anti-LDL-Ab, and an immune complex bonded to the plastic surface is formed. Non-bonded proteins are removed by washing The immune complex on the plastic source is detected with monoclonal antibodies, which have been induced against human LDL and purified under standard conditions. These antibodies were conjugated with the enzyme peroxidase. Peroxidase converts the colourless substrate TMB into a coloured product in the presence of H2 O2. After acidification of the reaction mixture with H2 SO4, the specific absorption of light is determined at 450 nm, this being a measure of the amount of ApoB-100-associated particles wich had been secreted by the HepG2 cells into the culture supernatant.
The IC50 value indicates the concentration of substance at which the absorption of light is inhibited by 50% compared with the control (solvent control without the substance).

With `CCc1nc2ccccc2c(=O)n1Cc1ccc(C(C(=O)N[C@@H](CO)c2ccccc2)C2CCCC2)cc1` (some centres unmarked) [Example 67] as the compound, how does the pIC50 read?
The pIC50 was 7.56.

`CCc1nc2ccccc2c(=O)n1Cc1ccc(C(C(=O)N[C@@H](CO)c2ccccc2)C2CCCC2)cc1` (some centres unmarked) [Example 68] was tested. Which pIC50 did it give?
Its pIC50 is 7.15.

`O=C(N[C@@H](CO)c1ccccc1)C(c1ccc(Cn2nc(-c3ccc(Cl)cc3)c3ccccc3c2=O)cc1)C1CCCC1` (some centres unmarked) [Example 76] was tested. Which pIC50 did it give?
The pIC50 was 7.43.

With `O=C(N[C@@H](CO)c1ccccc1)C(c1ccc(Cn2nc(-c3ccc(Cl)cc3)c3ccccc3c2=O)cc1)C1CCCC1` (some centres unmarked) [Example 77] as the compound, how does the pIC50 read?
Its pIC50 is 7.83.

How did the pIC50 turn out when `O=C(N[C@@H](CO)c1ccccc1)C(c1ccc(Cn2nc(-c3ccc(Cl)cc3)c3ccccc3c2=O)cc1)C1CCCC1` (some centres unmarked) [Example 78] was run?
Its pIC50 is 6.55.

Same assay, conditions: Homo sapiens, HepG2, HepG2 cells; culture supernatant; absorption at 450 nm inhibited by 50% vs solvent control; read-out: Apo B IC50

How did the pIC50 turn out when `O=C(N[C@@H](CO)c1ccccc1)C(c1ccc(CN2C(=O)c3ccncc3C2=O)cc1)C1CCCCCC1` (some centres unmarked) [Example 63] was run?
Its pIC50 is 8.23.

With `O=C(N[C@@H](CO)c1ccccc1)C(c1ccc(Cn2ncc3ccccc3c2=O)cc1)C1CCCCCC1` (some centres unmarked) [Example 70] as the compound, how does the pIC50 read?
The pIC50 was 7.23.

With `CCCCc1nn(Cc2ccc(C(C(=O)N[C@@H](CO)c3ccccc3)C3CCCC3)cc2)c(=O)c2ccccc12` (some centres unmarked) [Example 73] as the compound, how does the pIC50 read?
The pIC50 was 7.53.
